Test system: MOLM-14 F691L cells, FLT3 ITD and FLT3 F691L
Assay: Cell proliferation assay (CellTiter-Glo), MOLM-14 F691L
Assay type: cell-based
Details: Homo sapiens, 72 h, 3d-Growth, GMean
Method in brief: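 Three-day growth at 37 °C, 5% CO2 under compound (1 μM top final, 1:3 dilutions, eight points, 0.2% DMSO), read as ATP luminescence by CellTiter-Glo for IC50. Cells: MOLM-14 with FLT3 ITD plus D835Y or F691L, and IL-3-deprived Ba/F3 transfected with FLT3 ITD/D835Y, 1×10^4 per well.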

IC50, 0.0001 to 10 µM:
CC(C)(C#N)NC(=O)c1cccc(-c2cnc3[nH]c(-c4ccc(C(F)(F)F)nc4)cc3c2)n1 [Compound P-0201, N-(1-cyano-1-methyl-ethyl)-6-[2-[6-(trifluoromethyl)-3-pyridyl]-1H-pyrrolo[2,3-b]pyridin-5-yl]pyridine-2-carboxamide]
Cc1nn(C(C)C)cc1-c1[nH]c2ncc(-c3cccc(C(=O)NC(C)(C)C#N)n3)cc2c1Cl [Compound P-0192]
CC(C)(C#N)NC(=O)c1cccc(-c2cnc3[nH]c(C4=CCS(=O)(=O)CC4)cc3c2)n1 [Compound P-0186, N-(1-cyano-1-methyl-ethyl)-6-[2-(1,1-dioxo-3,6-dihydro-2H-thiopyran-4-yl)-1H-pyrrolo[2,3-b]pyridin-5-yl]pyridine-2-carboxamide]
COc1ncc(-c2cc3cc(-c4cccc(C(=O)NC(C)(C)C#N)n4)cnc3[nH]2)cn1 [Compound P-0196, N-(1-cyano-1-methyl-ethyl)-6-[2-(2-methoxypyrimidin-5-yl)-1H-pyrrolo[2,3-b]pyridin-5-yl]pyridine-2-carboxamide]
NC1CCC(NS(=O)(=O)c2cccc(-c3cnc4[nH]c(-c5ccccc5)cc4c3)n2)CC1 (stereo not drawn) [Compound P-0088, N-(4-aminocyclohexyl)-6-(2-phenyl-1H-pyrrolo[2,3-b]pyridin-5-yl)pyridine-2-sulfonamide]
C#Cc1cc2cc(-c3cccc(S(=O)(=O)NC4CC4)c3)cnc2[nH]1 [Compound P-0004, N-cyclopropyl-3-(2-ethynyl-1H-pyrrolo[2,3-b]pyridin-5-yl)benzenesulfonamide]
CC(C)(C#N)NC(=O)c1cccc(-c2cnc3[nH]c(-c4cnn(C(F)F)c4)c(Cl)c3c2)n1 [Compound P-0185, 6-[3-chloro-2-[1-(difluoromethyl)pyrazol-4-yl]-1H-pyrrolo[2,3-b]pyridin-5-yl]-N-(1-cyano-1-methyl-ethyl)pyridine-2-carboxamide]
CC(C)(C#N)NC(=O)c1cccc(-c2cnc3[nH]c(-c4cncnc4)cc3c2)n1 [Compound P-0195, N-(1-cyano-1-methyl-ethyl)-6-(2-pyrimidin-5-yl-1H-pyrrolo[2,3-b]pyridin-5-yl)pyridine-2-carboxamide]
CNC1CCN(C(=O)c2cccc(-c3cnc4[nH]c(-c5cn(C)nc5C)cc4c3)n2)C1 (stereo not drawn) [Compound P-0049, [6-[2-(1,3-dimethylpyrazol-4-yl)-1H-pyrrolo[2,3-b]pyridin-5-yl]-2-pyridyl]-[3-(methylamino)pyrrolidin-1-yl]methanone]
CC(C)(C#N)NC(=O)c1cccc(-c2cnc3[nH]c(-c4cnc(C(F)(F)F)nc4)cc3c2)n1 [Compound P-0204, N-(1-cyano-1-methyl-ethyl)-6-[2-[2-(trifluoromethyl)pyrimidin-5-yl]-1H-pyrrolo[2,3-b]pyridin-5-yl]pyridine-2-carboxamide]
CC(C)(C#N)NC(=O)c1cccc(-c2cnc3[nH]c(-c4cnn(CC(F)(F)F)c4)cc3c2)n1 [Compound P-0193, N-(1-cyano-1-methyl-ethyl)-6-[2-[1-(2,2,2-trifluoroethyl)pyrazol-4-yl]-1H-pyrrolo[2,3-b]pyridin-5-yl]pyridine-2-carboxamide]
CC(C)(C#N)NC(=O)c1cccc(-c2cnc3[nH]c(-c4cnn(C(=O)C5CC5)c4)cc3c2)n1 [Compound P-0184, N-(1-cyano-1-methyl-ethyl)-6-[2-[1-(cyclopropanecarbonyl)pyrazol-4-yl]-1H-pyrrolo[2,3-b]pyridin-5-yl]pyridine-2-carboxamide]
CC(C)Oc1ncc(-c2cc3cc(-c4cccc(C(=O)NC(C)(C)C#N)n4)cnc3[nH]2)cn1 [Compound P-0191, N-(1-cyano-1-methyl-ethyl)-6-[2-(2-isopropoxypyrimidin-5-yl)-1H-pyrrolo[2,3-b]pyridin-5-yl]pyridine-2-carboxamide]
CC(C)(C#N)NC(=O)c1cccc(-c2cnc3[nH]c(-c4cnc(C(C)(C)O)nc4)cc3c2)n1 [Compound P-0211, N-(1-cyano-1-methyl-ethyl)-6-[2-[2-(1-hydroxy-1-methyl-ethyl)pyrimidin-5-yl]-1H-pyrrolo[2,3-b]pyridin-5-yl]pyridine-2-carboxamide]
CCCOc1ncc(-c2cc3cc(-c4cccc(C(=O)NC(C)(C)C#N)n4)cnc3[nH]2)cn1 [Compound P-0206, N-(1-cyano-1-methyl-ethyl)-6-[2-(2-propoxypyrimidin-5-yl)-1H-pyrrolo[2,3-b]pyridin-5-yl]pyridine-2-carboxamide]
O=C(c1cccc(-c2cnc3[nH]c(-c4ccccc4)cc3c2)n1)N1CCC(NC2CC2)C1 (stereo not drawn) [Compound P-0085, [3-(cyclopropylamino)pyrrolidin-1-yl]-[6-(2-phenyl-1H-pyrrolo[2,3-b]pyridin-5-yl)-2-pyridyl]methanone]
CN(C)CC#Cc1cc2cc(-c3cccc(S(=O)(=O)NC4CC4)c3)cnc2[nH]1 [Compound P-0009, N-cyclopropyl-3-[2-[3-(dimethylamino)prop-1-ynyl]-1H-pyrrolo[2,3-b]pyridin-5-yl]benzenesulfonamide]
N[C@H]1CCN(C(=O)c2ncc(-c3cnc4[nH]c(-c5ccccc5)cc4c3)s2)C1 [Compound P-0054, [(3S)-3-aminopyrrolidin-1-yl]-[5-(2-phenyl-1H-pyrrolo[2,3-b]pyridin-5-yl)thiazol-2-yl]methanone]
CC(C)(C#N)NC(=O)c1cccc(-c2cnc3[nH]c(-c4cscn4)cc3c2)n1 [Compound P-0167, N-(1-cyano-1-methyl-ethyl)-6-(2-thiazol-4-yl-1H-pyrrolo[2,3-b]pyridin-5-yl)pyridine-2-carboxamide]
CC(C)(C#N)NC(=O)c1cccc(-c2cnc3[nH]c(-c4ccc(C5(C#N)CC5)cc4)cc3c2)n1 [Compound P-0194, 6-[2-[4-(1-cyanocyclopropyl)phenyl]-1H-pyrrolo[2,3-b]pyridin-5-yl]-N-(1-cyano-1-methyl-ethyl)pyridine-2-carboxamide]
c1ccc(-c2cc3cc(-c4cccc(OC5CCNCC5)n4)cnc3[nH]2)cc1 [Compound P-0050, 2-phenyl-5-[6-(4-piperidyloxy)-2-pyridyl]-1H-pyrrolo[2,3-b]pyridine]
O=S(=O)(NC1CC1)c1cccc(-c2cnc3[nH]c(C#CC4CCCCC4)cc3c2)c1 [Compound P-0010, 3-[2-(2-cyclohexylethynyl)-1H-pyrrolo[2,3-b]pyridin-5-yl]-N-cyclopropyl-benzenesulfonamide]
O=S(=O)(NC1CCNCC1)c1cccc(-c2cnc3[nH]c(-c4ccccc4)cc3c2)n1 [Compound P-0086, 6-(2-phenyl-1H-pyrrolo[2,3-b]pyridin-5-yl)-N-(4-piperidyl)pyridine-2-sulfonamide]
CCc1ncc(-c2cc3cc(-c4cccc(C(=O)NC(C)(C)C#N)n4)cnc3[nH]2)cn1 [Compound P-0205, N-(1-cyano-1-methyl-ethyl)-6-[2-(2-ethylpyrimidin-5-yl)-1H-pyrrolo[2,3-b]pyridin-5-yl]pyridine-2-carboxamide]
N#CC1CCN(C(=O)c2cccc(-c3cnc4[nH]c(-c5ccc(F)cc5)cc4c3)n2)C1 (stereo not drawn) [Compound P-0116, 1-[6-[2-(4-fluorophenyl)-1H-pyrrolo[2,3-b]pyridin-5-yl]pyridine-2-carbonyl]pyrrolidine-3-carbonitrile]
O=C(Nc1cccc(-c2cnc3[nH]c(-c4ccccc4)cc3c2)n1)C1CNC1 [Compound P-0084, N-[6-(2-phenyl-1H-pyrrolo[2,3-b]pyridin-5-yl)-2-pyridyl]azetidine-3-carboxamide]
CC(C)(C#N)NC(=O)c1cccc(-c2cnc3[nH]c(-c4ccc(N5CCOCC5)nc4)cc3c2)n1 [Compound P-0197, N-(1-cyano-1-methyl-ethyl)-6-[2-(6-morpholino-3-pyridyl)-1H-pyrrolo[2,3-b]pyridin-5-yl]pyridine-2-carboxamide]
CC(C)Oc1ccc(-c2cc3cc(-c4cccc(C(=O)NC(C)(C)C#N)n4)cnc3[nH]2)cn1 [Compound P-0190, N-(1-cyano-1-methyl-ethyl)-6-[2-(6-isopropoxy-3-pyridyl)-1H-pyrrolo[2,3-b]pyridin-5-yl]pyridine-2-carboxamide]
CC(C)(C#N)NC(=O)c1cccc(-c2cnc3[nH]c(-c4ccc(F)nc4)cc3c2)n1 [Compound P-0208, N-(1-cyano-1-methyl-ethyl)-6-[2-(6-fluoro-3-pyridyl)-1H-pyrrolo[2,3-b]pyridin-5-yl]pyridine-2-carboxamide]
CCOc1ncc(-c2cc3cc(-c4cccc(C(=O)NC(C)(C)C#N)n4)cnc3[nH]2)cn1 [Compound P-0203, N-(1-cyano-1-methyl-ethyl)-6-[2-(2-ethoxypyrimidin-5-yl)-1H-pyrrolo[2,3-b]pyridin-5-yl]pyridine-2-carboxamide]

From patent US9938273B2 (Plexxikon Inc., priority 2015, dated 2018)
